From ChEMBL document CHEMBL1201862, “PubChem BioAssay data set” (2004)
Where a name gives a salt, the structure may show the parent alone. The source made the active and inactive calls.

What was measured:
[1] = T. cruzi growth inhibition in host cells, dose response, cell-based, plate reader, dry powder, set 2 (AID 652275); format: functional
Protein Wnt-3a = Protein Wnt-3a (Mus musculus, UniProt P27467); experiment: SAR analysis of small molecule antagonists of Gli-SUFU in a Wnt3a luminescent reporter assay.; format: functional
[2] = inhibitors of non-replicating M. tuberculosis, dose response, luciferase, dry powder (AID 651620); format: functional; conditions: Mycobacterium tuberculosis
[3] = inhibitors of non-replicating M. tuberculosis, dose response, luciferase, dry powder (AID 651619); format: functional; conditions: Mycobacterium tuberculosis
[4] = target: Endoplasmic reticulum aminopeptidase 1 (Homo sapiens, UniProt Q9NZ08); experiment: ERAP1 aminopeptidase inhibitors, dose response, biochemical, cherry-pick, set 2, plate reader (AID 743314)
[5] = P. falciparum 3D7-ScDHODH growth inhibitors, dose response, SYBR Green, dry powder samples (AID 1159570); format: functional, cell-based;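 note: parasite growth measured after 72 hours of compound exposure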
[6] = P. falciparum Dd2 growth inhibitors, dose response, SYBR Green, dry powder samples (AID 1159566); format: functional, cell-based;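 note: potency for growth inhibition with lower SYBR green DNA signal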
[7] = P. falciparum Dd2 growth inhibitors, dose response, SYBR Green, cherry-picked samples (AID 1159567); format: functional, cell-based
[8] = P. falciparum ATP4 D1247Y mutant growth inhibitors, dose response, NITD609-resistant line, SYBR Green, dry powder (AID 1159571); format: functional, cell-based;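 note: parasites synchronized at ring stage by sorbitol before testing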
[9] = HepG2 cell cytotoxicity, dose response, cytotoxicity control, plate reader, dry powder samples (AID 1159569); format: functional, cell-based;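 note: inhibitor potency with signal falling toward the positive control level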
[10] = A549 cell cytotoxicity, dose response, CellTiter-Glo luminescence, dry powder, set 17 (AID 1117284); format: functional, cell-based
[11] = inhibitors of clade B AD8 Env fusion, dose response, cell-based, cherry-pick (AID 652062); format: functional;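 note: luciferase signal from cell-cell fusion driven by HIV-1 clade B AD8 Env; potency is for inhibitors of fusion seen as a drop in luminescence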
[12] = inhibitors of HIV Env-driven cell fusion, dose response, cherry-pick (AID 652057); format: functional, cell-based
[13] = growth suppression of beta-catenin-knockout colon cells, dose response, cell-based, HCT116, human colon tumor (AID 1045); format: functional;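 note: HCT116 colon tumor cells with beta catenin knocked out; cells exposed to compound for 60 hours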
[14] = Luminescence Cell-Based Dose Retest to Confirm Inhibitors of Cancer Stem Cells. [Related pubchem assays (depositor defined):AID2717, AID2721]; format: functional; conditions: Homo sapiens
[15] = CEM21 lymphoblast cell cytotoxicity, dose response, cytotoxicity control for viral fusion inhibitor project, CellTiter-Glo luminescence, cherry-picked (AID 652042); format: functional, cell-based;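 note: potency for signal decrease meaning cytotoxicity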
INS1 = experiment: beta cell apoptosis inhibitors, cytokine rescue, dose response, luminescence, retest (AID 449756); format: functional, cell-based; conditions: Rattus norvegicus;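 note: cell death triggered by IL-1 beta plus TNF-alpha plus IFN-gamma mixture; protective hits raise ATP signal compared with cytokine alone wells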
[16] = growth suppression of PTEN-null colon cells, dose response, cell-based, HCT116 PTEN knockout (AID 1047); format: functional;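 note: HCT116 colon tumor cells with PTEN knocked out; cells exposed to compound for 60 hours before readout; potency for loss of cell viability measured by luminescence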
[17] = inhibitors of intracellular T. cruzi replication, confirmation, NIH3T3 host cells, beta-gal luminescence (AID 2044); format: functional, cell-based;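 note: intracellular parasites grown in NIH/3T3 mouse fibroblasts as host cells; luminescent beta-galactosidase reporter signal from transgenic T. cruzi replicating inside host cells; inhibitors lower the luminescence signal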
[18] = target: T1, Ubiquitin-conjugating enzyme E2 N (Homo sapiens, UniProt P61088); format: functional;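 note: Dose-response confirmation in a TR-FRET assay detecting UBC13-driven polyubiquitin chain formation, inhibition measured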
T1 sequence (P61088 whole entry): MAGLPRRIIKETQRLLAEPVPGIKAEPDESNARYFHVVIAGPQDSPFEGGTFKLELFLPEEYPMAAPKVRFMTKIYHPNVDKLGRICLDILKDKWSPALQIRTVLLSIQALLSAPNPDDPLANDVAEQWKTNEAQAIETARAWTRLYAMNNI

[19] = ZM109 Env clade C HIV-1 fusion inhibitors, dose response, HeLa effector, CEM target cells, luciferase, cherry-pick (AID 652058); format: functional, cell-based
[20] = cytotoxicity toward NIH3T3 fibroblasts, dose response, counter-screen, cell-based, ATP luminescence, mouse fibroblasts (AID 2010); format: functional;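 note: cells exposed to compound for about 90 hours before reading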
[21] = off-target signal loss in HeLa-CEM21 co-culture – HeLa F-luc CTL cells, cherry-picked, counter-screen for HIV-1 Env fusion inhibitor project, dose response (AID 652040); format: functional, cell-based;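 note: potency for signal decrease marking cytotoxic or nonspecific inhibition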
Cytochrome P450 1A2 = target: T2, Cytochrome P450 1A2 (Homo sapiens, UniProt P05177);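 note: PubChem cytochrome P450 panel assay, CYP1A2 panel member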
T2 sequence (P05177 whole entry): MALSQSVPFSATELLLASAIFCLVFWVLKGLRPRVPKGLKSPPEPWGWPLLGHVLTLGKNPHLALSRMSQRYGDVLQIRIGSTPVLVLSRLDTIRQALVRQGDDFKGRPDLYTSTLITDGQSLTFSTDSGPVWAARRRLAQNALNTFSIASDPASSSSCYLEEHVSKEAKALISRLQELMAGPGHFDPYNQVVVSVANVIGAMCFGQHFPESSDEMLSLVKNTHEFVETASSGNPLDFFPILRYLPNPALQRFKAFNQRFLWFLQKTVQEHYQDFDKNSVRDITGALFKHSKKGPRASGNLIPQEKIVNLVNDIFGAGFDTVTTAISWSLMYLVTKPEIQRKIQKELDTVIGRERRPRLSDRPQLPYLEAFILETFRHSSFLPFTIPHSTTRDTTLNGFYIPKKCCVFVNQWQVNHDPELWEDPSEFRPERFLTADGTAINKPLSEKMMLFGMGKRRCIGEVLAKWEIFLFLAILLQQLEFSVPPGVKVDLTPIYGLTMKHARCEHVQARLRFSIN

cells = format: functional, cell-based; conditions: INS-1E
[22] = Dose-response inhibition of insulin secretion in a rat insulinoma line at 5 mM glucose (AID 1117331); format: functional, cell-based; conditions: INS-1E
Cytochrome P450 2C19 = Cytochrome P450 2C19 (Homo sapiens, UniProt P33261); experiment: Cytochrome panel assay with activity outcomes. Panel member name: p450-cyp2c19 Compounds with AC50 equal or less than 10 uM are considered active; format: functional; conditions: read-out: AC50
Chain of Cytochrome P450 2C19 (P33261 whole entry): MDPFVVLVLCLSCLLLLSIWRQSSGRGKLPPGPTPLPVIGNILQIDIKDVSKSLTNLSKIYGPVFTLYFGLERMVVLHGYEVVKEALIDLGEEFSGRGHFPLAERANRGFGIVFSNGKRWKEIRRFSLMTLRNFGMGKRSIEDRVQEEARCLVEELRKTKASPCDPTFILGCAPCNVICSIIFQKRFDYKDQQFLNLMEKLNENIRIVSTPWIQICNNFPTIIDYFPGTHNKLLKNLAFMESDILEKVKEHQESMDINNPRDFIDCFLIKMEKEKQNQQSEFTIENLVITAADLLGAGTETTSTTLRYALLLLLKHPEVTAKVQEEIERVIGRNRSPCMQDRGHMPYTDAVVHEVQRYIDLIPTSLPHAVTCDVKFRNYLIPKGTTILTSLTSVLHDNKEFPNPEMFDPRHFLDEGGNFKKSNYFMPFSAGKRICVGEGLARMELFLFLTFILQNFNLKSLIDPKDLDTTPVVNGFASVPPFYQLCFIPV

Chain of Protein Wnt-3a (P27467 whole entry): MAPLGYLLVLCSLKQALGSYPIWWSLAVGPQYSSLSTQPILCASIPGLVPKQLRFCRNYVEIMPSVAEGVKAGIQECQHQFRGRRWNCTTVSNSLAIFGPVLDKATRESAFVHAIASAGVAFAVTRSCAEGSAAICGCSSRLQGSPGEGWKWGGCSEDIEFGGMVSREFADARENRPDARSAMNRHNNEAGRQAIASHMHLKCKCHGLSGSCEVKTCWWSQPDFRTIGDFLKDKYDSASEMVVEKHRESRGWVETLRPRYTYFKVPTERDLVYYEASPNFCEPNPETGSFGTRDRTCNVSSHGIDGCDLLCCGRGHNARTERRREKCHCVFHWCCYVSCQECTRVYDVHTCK
Chain of Endoplasmic reticulum aminopeptidase 1 (Q9NZ08 whole entry): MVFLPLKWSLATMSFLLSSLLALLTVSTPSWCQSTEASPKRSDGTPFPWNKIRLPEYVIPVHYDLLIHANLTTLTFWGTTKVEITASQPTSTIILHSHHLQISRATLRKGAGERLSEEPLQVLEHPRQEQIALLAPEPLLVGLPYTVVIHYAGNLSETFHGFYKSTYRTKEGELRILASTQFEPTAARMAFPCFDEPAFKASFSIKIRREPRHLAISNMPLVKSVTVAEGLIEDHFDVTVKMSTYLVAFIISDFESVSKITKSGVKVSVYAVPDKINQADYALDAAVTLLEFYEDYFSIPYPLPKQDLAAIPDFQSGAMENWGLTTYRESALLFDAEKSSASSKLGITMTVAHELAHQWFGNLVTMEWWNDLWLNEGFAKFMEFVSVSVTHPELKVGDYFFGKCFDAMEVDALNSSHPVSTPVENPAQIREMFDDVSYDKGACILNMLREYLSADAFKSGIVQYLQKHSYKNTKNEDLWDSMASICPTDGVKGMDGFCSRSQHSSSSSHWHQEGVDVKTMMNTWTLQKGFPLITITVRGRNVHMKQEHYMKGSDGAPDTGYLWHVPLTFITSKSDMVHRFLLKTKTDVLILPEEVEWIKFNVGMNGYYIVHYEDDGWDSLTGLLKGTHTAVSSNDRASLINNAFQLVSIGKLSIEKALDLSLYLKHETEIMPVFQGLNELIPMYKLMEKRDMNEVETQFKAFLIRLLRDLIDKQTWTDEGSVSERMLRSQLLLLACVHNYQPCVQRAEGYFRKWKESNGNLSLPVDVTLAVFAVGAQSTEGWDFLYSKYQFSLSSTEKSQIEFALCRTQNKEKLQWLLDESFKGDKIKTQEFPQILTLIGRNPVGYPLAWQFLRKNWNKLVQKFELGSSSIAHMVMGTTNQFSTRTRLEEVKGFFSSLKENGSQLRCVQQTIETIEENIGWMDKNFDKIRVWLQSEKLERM

C[C@H]1CN([C@@H](C)CO)C(=O)c2cccc(NC(=O)c3ccncc3)c2O[C@@H]1CN(C)Cc1ccc(F)cc1Cl
AC50 [1]: 0.0324 µM (active)

CN(C)c1cc(NC(=O)c2ccccc2)ncn1
IC50 (Protein Wnt-3a): > 21.8 µM (inactive)

CN(C)C(=O)c1ccc(-c2ccc([C@H]3[C@H](CO)N4CCCCN(CC5CC5)C[C@@H]34)cc2)cc1
AC50 [1]: 2.74 µM (active)

COc1ccc(CSc2nnc(-c3ccc(Cl)cc3)o2)nc1
IC90 [2]: 2 µM (active)
IC90 [3]: 2 µM (active)

CCC(=O)N1[C@H](C(=O)OC)[C@@H](CO)[C@@H]2Cn3c(ccc(/C=C/c4ccccc4)c3=O)[C@@H]21
AC50 [4]: 12.8 µM (active)

COc1cccc(NC(=O)N2[C@@H](CO)[C@H](c3ccccc3)[C@@H]2CNCC(C)C)c1
AC50 [5]: 1.46 µM (active)
AC50 [6]: 0.852 µM (active)
AC50 [7]: 2.02 µM (active)
AC50 [8]: 1.66 µM (active)
AC50 [9]: 95.4 µM (active)

COc1ccccc1-c1ccc(CN(C)C[C@@H]2Oc3cc(C#C[C@@H](C)O)ccc3S(=O)(=O)N([C@@H](C)CO)C[C@@H]2C)cc1
AC50 [10]: > 52 µM (inactive)

CN(C)C(=O)c1ccc(-c2cccc(-c3nc(C(=O)NC4CCCC4)cc4c3[C@H](CCO)N([S@@+]([O-])C(C)(C)C)C4)c2)cc1
AC50 [5]: 1.14 µM (active)
AC50 [6]: 0.768 µM (active)
AC50 [7]: 1.99 µM (active)
AC50 [8]: 1.03 µM (active)
AC50 [9]: 30.5 µM (active)

Cc1ccc(Nc2cc(C)nc(NCc3ccccc3)n2)cc1
AC50 [11]: 7.54 µM (active)
AC50 [12]: 4.04 µM (active)
EC50 [13]: 6.62 µM (active)
AC50 [14]: 6.3 µM (active)
AC50 [15]: 17.2 µM (active)
AC50 (INS1): 3.94 µM (active)
EC50 [16]: 7.18 µM (active)
EC50 [17]: 0.255 µM (active)
IC50 [18]: > 20 µM (inactive)
AC50 [19]: 4.51 µM (active)
EC50 [20]: > 60 µM (inconclusive)
AC50 [21]: 4.77 µM (active)

N=C(N)NCCC[C@H](N)C(=O)O [ARGININE]
AC50 (Cytochrome P450 1A2): 31.6 µM (inconclusive)
IC50 (cells): > 33.3 µM (inactive)
IC50 [22]: > 33.3 µM (inactive)
AC50 (Cytochrome P450 2C19): 10 µM (inconclusive)

CN(C)CCOC(c1ccc(Cl)cc1)c1ccccn1 (stereo not given) [CARBINOXAMINE MALEATE]
IC50 (cells): > 33.3 µM (inactive)
IC50 [22]: 21.4 µM (inactive)
